Measurements from patent US9006241B2, “Pyrimidine derivatives” (Noviga Research AB, priority 2011, dated 2015).

How the values were obtained:
Type in all cases: cell-based
A2780 (ovarian cancer) = experiment: FMCA, A2780; conditions: Homo sapiens, A2780 ovarian cancer cells
Excerpt: (§1) The Fluorometric Microculture Cytotoxicity Assay, FMCA (Larsson, R., et al.; Anticancer Res, 1989, 9, 1111-1119), is a three day non-clonogenic microplate-based cell viability assay used for measurement of the cytotoxic and/or cytostatic effect of compounds in vitro (Lindhagen, E. et al.; Nat. Protoc., 2008, 3, 1364-1369). FMCA represents a valuable method to measure cytotoxicity in a number of cell types, both cell lines and primary cells from patients (Larsson, R., et al.; Int. J. Cancer, 1992, 50, 177-185; Fridborg, H., et al.; Eur. J. Cancer, 1999. 35, 424-432; Dhar, S., et al.; Br. J. Cancer, 1996, 74, 888-896).
(§2) FMCA is based on the principle that fluorescein diacetate (FDA) is converted to the fluorescent probe fluorescein by esterases in the plasma membranes of living cells. For experiments, 96 or 384-well microplates are prepared with compounds and stored at −70° C. until use. Cells are then seeded into the drug-prepared plates and placed in an incubator for 72 h. On the last day of incubation, the plates are washed and a buffer containing FDA is added and incubated with the cells for 45 minutes. Finally the fluorescence per well is measured in a fluorometer and a Survival Index % (SI) for each compound-treated well is calculated with the equation: Compound-treated cells minus blank divided by control cells minus blank. A high SI-value indicates a large percentage of living cells and vice versa.
(§3) For dose-response experiments, 384-well plates were prepared as follows:
(§4) Compounds of the invention as well comparative kinase inhibitors sorafenib sunitinib, dasatinib, pazopanib and a reference compound disclosed in WO 2009/071535 (compound #107) were diluted with PBS to a concentration ten-times higher than the desired starting concentration. Then, a Biomek 2000 liquid handling system was employed to serially dilute the compounds in a deep-well 384-well plate. From this plate, assay plates containing 5 μl compound per well were prepared with the Biomek 2000. Certain compounds precipitated when diluted with PBS, and these compounds were therefore prepared in a 96-well plate manually as described above using culture medium RPMI 1640 instead of PBS.
(§5) The compounds were also tested at five concentrations, with five times serial dilution on the following cell types: CCRF-CEM, hTERT-RPE1 (normal retinal epithelial cells), hRPTEpiC (normal renal cells), and peripheral blood mononuclear cells (PBMC). Each experiment was performed three times, except for PBMC and hRPTEpiC, which were performed twice. SI-values were calculated, graphs were plotted using GraphPadPrism 5.0 (GraphPad Software Inc. La Jolla, Calif.) and IC50-values for each cell type and compound were determined from the curves.
(§6) The compounds of the invention were also tested on further cancer cell lines related to breast cancer (MDA-MB-231; see e.g. Cailleau, R., et al.; J. Natl. Cancer Inst., 1974, 53, 661-674), teniposide-resistant leukemia (CEM/VM1 see e.g. Danks, M., et al.; Cancer Res., 1987, 47, 1297-1301), leukemia (HL-60; see e.g. Collins, S., et al.; Nature, 1977, 270, 347-349), doxorubicin-resistant lung cancer (H69AR; see e.g. Mirski, S., et al.; Cancer Res., 1987, 47, 2594-2598), myeloma (RPMI 8226; see e.g. Matsuoka, Y., et al.; Proc. Soc. Exp. Biol. Med., 1967, 125, 1246-1250), doxorubicin-resistant myeloma (8226/Dox40; see e.g. Dalton, W., et al.; Blood, 1989, 15, 747-752), lymphoma (U-937, see e.g. Sundström, C., et al.; Int. J. Cancer, 1976, 17, 565-577), vincristin-resistant lymphoma (U-937-vcr; see e.g. Botling, J., et al.; Int. J. Cancer, 1994, 58, 269-274), ovarian cancer (A2780; see e.g. Hamilton, T., et al.; Semin. Oncol., 1984, 11, 285-298), doxorubicin-resistant ovarian cancer (A2780/Adr), cisplatin-resistant ovarian cancer (A2780/Cis; see e.g. Behrens, B., et al. Cancer Res. 1987, 47, 414-418), pancreatic cancer (PANC-1, BxPC-3, and MIA PaCa-2; see e.g. Lieber, M., et al.; Int. J. Cancer, 1975, 15, 741-747; Loor, R., et al.; Clin. Lab. […]

U-937 (lymphoma) = experiment: FMCA, U-937; conditions: Homo sapiens, U-937 lymphoma cells
Excerpt: as §1, §2, §3, §4, §5, §6

[1] = tested on: H69AR (doxorubicin-resistant lung cancer); experiment: FMCA, H69AR; conditions: Homo sapiens, H69AR doxorubicin-resistant lung cancer cells
Excerpt: as §1, §2, §3, §4, §5, §6

[2] = tested on: CEM/VM1 (teniposide-resistant leukemia); experiment: FMCA, CEM/VM1; conditions: Homo sapiens, CEM/VM1 teniposide-resistant leukemia cells
Excerpt: as §1, §2, §3, §4, §5, §6

RPMI 8226 (myeloma) = experiment: FMCA, RPMI 8226; conditions: Homo sapiens, RPMI 8226 myeloma cells
Excerpt: as §1, §2, §3, §4, §5, §6

HL-60 (leukemia) = experiment: FMCA, HL-60; conditions: Homo sapiens, HL-60 leukemia cells
Excerpt: as §1, §2, §3, §4, §5
(§7) The compounds of the invention were also tested on further cancer cell lines related to breast cancer (MDA-MB-231; see e.g. Cailleau, R., et al.; J. Natl. Cancer Inst., 1974, 53, 661-674), teniposide-resistant leukemia (CEM/VM1 see e.g. Danks, M., et al.; Cancer Res., 1987, 47, 1297-1301), leukemia (HL-60; see e.g. Collins, S., et al.; Nature, 1977, 270, 347-349), doxorubicin-resistant lung cancer (H69AR; see e.g. Mirski, S., et al.; Cancer Res., 1987, 47, 2594-2598), myeloma (RPMI 8226; see e.g. Matsuoka, Y., et al.; Proc. Soc. Exp. Biol. Med., 1967, 125, 1246-1250), doxorubicin-resistant myeloma (8226/Dox40; see e.g. Dalton, W., et al.; Blood, 1989, 15, 747-752), lymphoma (U-937, see e.g. Sundström, C., et al.; Int. […]

[3] = tested on: U-937-vcr (vincristin-resistant lymphoma); experiment: FMCA, U-937-vcr; conditions: U-937-vcr vincristin-resistant lymphoma cells
Excerpt: as §1, §2, §3, §4, §5, §6

[4] = tested on: A2780/Adr (doxorubicin-resistant ovarian cancer); experiment: FMCA, A2780/Adr; conditions: A2780/Adr doxorubicin-resistant ovarian cancer cells
Excerpt: as §1, §2, §3, §4, §5, §6

[5] = tested on: MDA-MB-231 (breast cancer); experiment: FMCA, MDA-MB-231; conditions: Homo sapiens, MDA-MB-231 breast cancer cells
Excerpt: as §1, §2, §3, §4, §5, §7

[6] = tested on: PANC-1 (pancreatic cancer); experiment: FMCA, PANC-1; conditions: Homo sapiens, PANC-1 pancreatic cancer cells
Excerpt: as §1, §2, §3, §4, §5, §7

PC-3 (prostate cancer) = experiment: FMCA, PC-3; conditions: PC-3 prostate cancer cells
Excerpt: as §1, §2, §3, §4, §5, §7

[7] = tested on: CCRF-CEM cancer cells - leukemia; experiment: Fluorometric Microculture Cytotoxicity Assay (FMCA), CCRF-CEM; conditions: Homo sapiens, 72 h incubation
Excerpt: as §1, §2
In subsequent experiments, compounds were tested, along with a number of approved cancer drugs (dasatinib, pazopanib, sorafenib, and sunitinib) as described above. Initially, the acute lymphoblastic leukemia cell line CCRF-CEM was used throughout. In the assay plates, medium was added to six empty wells (blank wells) and wells were filled with PBS and cell suspension and served as control wells. SI-values were then calculated for each compound-treated well as described above. All experiments were conducted twice and a new batch of plates was prepared for each experiment.
as §3, §4, §5

[8] = tested on: MIA PaCa-2 (pancreatic cancer); experiment: FMCA, MIA PaCa-2; conditions: Homo sapiens, MIA PaCa-2 pancreatic cancer cells
Excerpt: as §1, §2, §3, §4, §5, §7

[9] = tested on: A2780/Cis (cisplatin-resistant ovarian cancer); experiment: FMCA, A2780/Cis; conditions: A2780cis, A2780/Cis cisplatin-resistant ovarian cancer cells
Excerpt: as §1, §2, §3, §4, §5, §6

[10] = tested on: BxPC-3 (pancreatic cancer); experiment: FMCA, BxPC-3; conditions: Homo sapiens, BxPC-3 pancreatic cancer cells
Excerpt: as §1, §2, §3, §4, §5, §7

[11] = tested on: 8226/Dox40 (doxorubicin-resistant myeloma); experiment: FMCA, 8226/Dox40; conditions: 8226/Dox40 doxorubicin-resistant myeloma cells
Excerpt: as §1, §2, §3, §4, §5, §6

Structure (SMILES) | EC50 (A2780 (ovarian cancer)) | EC50 (U-937 (lymphoma)) | EC50 [1] | EC50 [2] | EC50 (RPMI 8226 (myeloma)) | EC50 (HL-60 (leukemia)) | EC50 [3] | EC50 [4] | EC50 [5] | EC50 [6] | EC50 (PC-3 (prostate cancer)) | EC50 [7] | EC50 [8] | EC50 [9] | EC50 [10] | EC50 [11]
CCOc1ccc2[nH]cc(CCNc3nccc(Nc4ccc5[nH]c(C)cc5c4)n3)c2c1 [Example 5, N^2-[2-(5-ethoxy-1H-indol-3-yl)ethyl]-N^4-(2-methyl-1H-indol-5-yl)pyrimidine-2,4-diamine] | 0.051 µM | 0.022 µM | 0.094 µM | 0.017 µM | 0.042 µM | 0.0082 µM | 0.02 µM | 0.18 µM | 0.057 µM | 0.43 µM | 0.15 µM | 0.015 µM | 0.018 µM | 0.033 µM | 0.055 µM | 0.16 µM
COc1ccc2[nH]cc(CCNc3nc(C)cc(Nc4ccc5[nH]c(C)cc5c4)n3)c2c1 [Example 27, N^2-[2-(5-methoxy-1H-indol-3-yl)ethyl]-6-methyl-N^4-(2-methyl-1H-indol-5-yl)pyrimidine-2,4-diamine] | 0.074 µM | 0.041 µM | 0.063 µM | 0.044 µM | 0.11 µM | – | 0.062 µM | 0.44 µM | – | – | – | 0.019 µM | – | 0.062 µM | – | 0.3 µM
COc1ccc2[nH]cc(CCNc3nccc(Nc4ccc5[nH]c(CO)cc5c4)n3)c2c1 [Example 15, (5-{2-[2-(5-methoxy-1H-indol-3-yl)ethylamino]pyrimidin-4-ylamino}-1H-indol-2-yl)methanol] | 0.055 µM | 0.037 µM | 0.12 µM | 0.071 µM | 1.4 µM | 0.031 µM | 0.069 µM | 0.98 µM | 0.15 µM | 1.4 µM | 0.31 µM | 0.027 µM | 0.058 µM | 0.096 µM | 0.12 µM | 4.3 µM
COc1ccc2[nH]cc(CCNc3nccc(Nc4ccc5c(c4)cc(C)n5C)n3)c2c1 [Example 13, N^4-(1,2-dimethyl-1H-indol-5-yl)-N^2-[2-(5-methoxy-1H-indol-3-yl)ethyl]pyrimidine-2,4-diamine] | 0.064 µM | 0.03 µM | 0.12 µM | 0.038 µM | 0.12 µM | 0.02 µM | 0.029 µM | 0.33 µM | 0.38 µM | 0.86 µM | 0.38 µM | 0.019 µM | 0.054 µM | 0.073 µM | 0.13 µM | 0.18 µM
Cc1ccc2[nH]cc(CCNc3nccc(Nc4ccc5[nH]c(C)cc5c4)n3)c2c1 [Example 9, N^2-[2-(5-methyl-1H-indol-3-yl)ethyl]-N^4-(2-methyl-1H-indol-5-yl)pyrimidine-2,4-diamine] | 0.21 µM | 0.08 µM | 0.17 µM | 0.064 µM | 0.17 µM | – | 0.046 µM | 0.82 µM | – | – | – | 0.038 µM | – | 0.2 µM | – | 0.2 µM
COc1ccc2[nH]cc(CCNc3nccc(Nc4ccc5[nH]c(C)nc5c4)n3)c2c1 [Example 19, N^2-[2-(5-methoxy-1H-indol-3-yl)ethyl]-N^4-(2-methyl-1H-benzo[d]imidazol-5-yl)pyrimidine-2,4-diamine] | 0.13 µM | 0.1 µM | 0.94 µM | 0.062 µM | 7.8 µM | 0.092 µM | 0.78 µM | 2 µM | 1.9 µM | 5.2 µM | 2.1 µM | 0.032 µM | 0.031 µM | 0.23 µM | 0.91 µM | 30 µM
COc1ccc2[nH]cc(CCNc3nccc(Nc4ccc5[nH]c(C)c(C)c5c4)n3)c2c1 [Example 14, N^4-(2,3-dimethyl-1H-indol-5-yl)-N^2-[2-(5-methoxy-1H-indol-3-yl)ethyl]pyrimidine-2,4-diamine] | 0.11 µM | 0.073 µM | 0.2 µM | 0.051 µM | 0.21 µM | – | 0.044 µM | 0.44 µM | – | – | – | 0.021 µM | – | 0.063 µM | – | 0.28 µM
COc1ccc2[nH]cc(CCNc3nccc(Nc4ccc5[nH]c(C)cc5c4)n3)c2c1 [Example 4, N^2-[2-(5-methoxy-1H-indol-3-yl)ethyl]-N^4-(2-methyl-1H-indol-5-yl)pyrimidine-2,4-diamine] | 0.033 µM | 0.013 µM | 0.023 µM | 0.0066 µM | 0.045 µM | 0.0091 µM | 0.028 µM | 0.14 µM | 0.1 µM | 1.6 µM | 0.24 µM | 0.028 µM | 0.014 µM | 0.025 µM | 0.037 µM | 0.11 µM
